Test results: patent US10231472B2, “Zilpaterol animal premix formulation” (Intervet Inc., priority 2015, dated 2019)
Where a name gives a salt, the structure may show the parent alone.

What was measured:
[1] = Stability of zilpaterol in liquid vehicles at high temperature; type: physicochemical
Description: (§1) However since solubility of the drug was poor in propylene glycol, a significant additional amount of propylene glycol was needed (27.6%) to fully solubilize the drug. Since propylene glycol is viscous/sticky, this larger amount of propylene glycol could not be added to the corn cob carrier without causing the product to be sticky which results in poor flow properties. To address this problem, a premix containing only 6% propylene glycol and 2% water was prepared by heating the liquid mixture of zilpaterol HCl to a high temperature and creating a supersaturation of zilpaterol HCl in the propylene glycol/water vehicle. This was successful in fully solubilizing the zilpaterol HCl without needing to add additional liquids. […] When this hot supersaturated solution is added to a dry carrier, it is easily absorbed and mixed and the combination becomes dry and free flowing. Excellent uniformity is obtained, and product safety is improved since free solid drug particles are avoided.
Propylene glycol is the preferred solvent.

[2] = Solubility of zilpaterol HCl in solvents; type: physicochemical
Description: For some drugs that have a good solubility profile formulations can be prepared by dissolving the drug into a solvent and then mixing the resulting solution with additional excipient/carriers to prepare a suitable dosage form (premix, tablets, etc.). This approach works best when the drug concentration is very low and the drug has good solubility. If an excess amount of liquid is added during manufacture a wet mass can be formed that is difficult to process and needs to be dried to remove excess solvent. Drying adds additional cost and complexity to the manufacturing process.
as §1

stability in propylene glycol alone ([1]; after 45 days at 60° C., propylene glycol alone): 95.2% | stability in solution, temperature ([1]; supersaturated solution in propylene glycol/water vehicle): ≤ 90 °C | solubility of the drug in premix liquid ([2]; premix with 0.8% zilpaterol HCl, 6% propylene glycol and 2% water, without heating): not fully soluble | solubility in propylene glycol ([2]; propylene glycol): 2.9% | solubility ([2]; water): 130 mg/mL
SMILES: CC(C)NC1CCn2c(=O)[nH]c3cccc(c32)C1O (centres unmarked) [Zilpaterol HCl, 4,5,6,7-tetrahydro-7-hydroxy-6-(isopropylamino) imidazo[4,5,1-jk]-[1]benzazepin-2(1H)-one]
